The results in this text go back to US11708393B2, “Targeted non-invasive imaging probes of EGFR expressing cells” (priority 2011, dated 2023).

“Also recorded” adds a separate entry of the source. Cy5.5 = cyanine fluorochrome label, coupled as NHS ester; AEEA = NCCOCCOCC(=O)O

One test has as its system Gli36Δ5 cells. Briefly: Receptor uptake, cell-associated fluorescence in Gli36Δ5 cells. The test is classed as cell-based, human. The note with it: 1 μmol/L compound. The procedure:
FIG. 2 illustrates a plot showing cell associated fluorescence measured using spectrofluorometry at the indicated times for Gli36Δ5 cells incubated with 1 μmol/L of compounds 1 to 4 [Cy5.5-(AEEA)n-EGFpep].
FIGS. 3(A-B) illustrate images showing Gli36Δ5 (A) and U87-MG (B) cells incubated with 1 μmol/L compounds for the indicated times. Uptake of the compounds was assessed using epifluorescence microscopy. Images were taken at ×40 magnification. Scale bar, 50 μm.
Gli36Δ5 or U87-MG cell lines plated in 96-well culture plates (20,000 cells per well; 3 wells per condition) were incubated over indicated time periods with […] of Cy5.5-labeled EGF peptides 2, 3, and 4 at 37° C. and 5% CO2. Cells were briefly rinsed with HEPES buffer and imaged with a Tecan Infinite M200 fluorescence plate reader (excitation 670 nm, emission 700 nm).

Another test concerns the target T1, EGFR (Homo sapiens, UniProt P00533).
T1 construct: endogenous in cells; host or cells: Gli36Δ5 human glioblastoma cells
In words: Saturation binding assay of Cy5.5-labeled peptides on Gli36Δ5 cells. The note with it: for Kd: 37° C., 90 minutes, read-out: apparent binding affinity Kd from saturation binding assay. The procedure: To determine binding affinities of the Cy5.5-labeled peptides 1 to 4 to EGFR, a saturation binding assay protocol using labeled fluorescence ligand against cell surface receptors was adapted as previously reported. Briefly, Gli36Δ5 cells were plated 20,000 cells per well were plated on black Costar 96-well plates (cat. no. 3603). Probes were diluted to range of concentration ([…]) in growing media with 0.3% bovine serum albumin (BSA) and added into wells and incubated at 37° C. for 90 minutes at 5% CO2. Cells were then washed with PBS twice and dried. DMSO was added before reading fluorescence (excitation 670 nm, emission 700 nm) with a Tecan Infinite M200 plate reader. Saturation binding assay data were in quadruplicates and analyzed using one site binding classical equation for nonlinear regression analysis with the GraphPad Prism version 4.0.
Binding affinity was determined with nonlinear regression analysis with one site binding hyperbola with an equation: […], where Bmax is the maximal binding site and the Kd is the concentration required to reach half-maximal binding. ANOVA analysis at 95% confidence interval (CI) was used to compare treatments (*, […]; confidence interval, ***, […]). To compare live animal FMT, nonparametric one-way ANOVA analyses (Kruskal-Wallis tests) and the median differences were considered significant with P=0.0220.

For test [1], the system named is Gli36Δ5 orthotopic brain tumors. In words: In vivo FMT imaging of orthotopic Gli36Δ5 brain tumors. More on the design: species or system mice. On the procedure:
(§1) NIH athymic nude female mice (5-8 weeks and 20-25 g upon arrival, NCI-NIH) were maintained at the Animal Resource Center at Case Western Reserve University (Cleveland, Ohio) according to institutional policies. Cell for brain implantation were harvested with 1 mL 0.05% trypsin-EDTA (Gibco) and briefly washed with PBS. Trypsin was inactivated by the addition of serum-containing media. The resulting cell suspension was centrifuged at […] for 3 minutes. The cell suspension was centrifuged and the supernatant was removed after 2 washes in PBS. Finally, the cells were resuspended in […] PBS for brain implants per animal (250,000 cells per animal for brain implants). […]
(§2) Mice bearing brain tumors derived from Gli36Δ5 or U87-MG cells were administered with compounds at 1 nmol/g via tail vein injection. […] Before injection, mice were anesthetized with isoflurane and subjected to tomographic and spectral fluorescence imaging. […] Fluorescence-mediated molecular tomography (FMT) images were obtained using FMT2500 (Perkin-Elmer), and 3-dimensional reconstructions of fluorescent signals were acquired using the accompanying software TrueQuant. Quantitative fluorescent signals for Cy5.5 of compound 2 were calibrated as per manufacturer's instructions using the 680-channel. […] Fluorescence images were acquired before treatment, immediately after and 1.5 hours after treatment. […]

The subject of test [2] is U87-MG orthotopic brain tumors. Briefly: In vivo FMT imaging of orthotopic U87-MG brain tumors. Also noted: species or system mice. On the procedure:
as §1, §2

The test system of test [3] is A431 cells (high wild-type EGFR). Briefly: Saturation binding and fluorescence uptake in A431 cells. In kind it is cell-based, human. The note with it: A431 cells incubated with compound plus EGF ligand. The source says: We also examined the expression of EGFRvIII in the cell lines. […] In addition, we examined A431 cells, a squamous carcinoma cell line, that expresses high levels of wild-type EGFR.

The subject of test [4] is Gli36Δ5 orthotopic brain tumors overexpressing EGFR. Briefly: Ex vivo fluorescence imaging of brains with orthotopic Gli36Δ5 tumors. In kind it is in vivo, mice. As to conditions: for accumulation in tumor, % of injected dose: 1 nmol/g tail vein, 1 hour, brains imaged ex vivo; for tumor targeting (in words): 1 nmol/g, ex vivo analysis of brain tissues. On the procedure: NIH athymic nude female mice (5-8 weeks and 20-25 g upon arrival, NCI-NIH) were maintained at the Animal Resource Center at Case Western Reserve University (Cleveland, Ohio) according to institutional policies. Cell for brain implantation were harvested with 1 mL 0.05% trypsin-EDTA (Gibco) and briefly washed with PBS. Trypsin was inactivated by the addition of serum-containing media. The resulting cell suspension was centrifuged at […] for 3 minutes. The cell suspension was centrifuged and the supernatant was removed after 2 washes in PBS. Finally, the cells were resuspended in […] PBS for brain implants per animal (250,000 cells per animal for brain implants). Immediately following the cell harvesting procedure, animals were inoculated. For brain tumor implantation, mice were anesthetized by intraperitoneal (i.p.) injection of 50 mg/kg ketamine/xylazine and fitted into a stereotaxic rodent frame (David Kopf Instruments). A small incision was made just lateral to midline to expose bregma suture. A small (1.0 mm) burr hole was drilled at anterior (AP)=+1, lateral (ML)=−2.5 from the bregma. Glioblastoma cells were slowly deposited at a rate of 1 μL/min in the right striatum at a depth of 3 mm from dura with a 10-μL syringe (23-G needle). The needle was slowly withdrawn and the incision was closed with 2 to 3 sutures. Brain tumors grew for 10 to 12 days as per IACUC protocols at which point in vivo imaging studies were conducted. As control for the effects of surgical intervention, animals were also subjected to the implantation procedure but Optical Imaging of Tumors with EGFR Overexpression received 2 μL PBS (sham animals). Animals were fed exclusively on a special rodent diet (Harlan Laboratories, Inc.; Tekland 2018S) to reduce autofluorescence.
Mice bearing brain tumors derived from Gli36Δ5 or U87-MG cells were administered with compounds at 1 nmol/g via tail vein injection. In vivo competition assays were done with mixture of compound 2 and 10-fold concentration of nonlabeled probe 5. Before injection, mice were anesthetized with isoflurane and subjected to tomographic and spectral fluorescence imaging. One hour after injection, animals were re-imaged. Brains were then extracted and imaged. The excised brains were embedded in Tissue-Tek optimum cutting temperature for cryosections for immunohistochemistry (IHC). Fluorescence-mediated molecular tomography (FMT) images were obtained using FMT2500 (Perkin-Elmer), and 3-dimensional reconstructions of fluorescent signals were acquired using the accompanying software TrueQuant. Quantitative fluorescent signals for Cy5.5 of compound 2 were calibrated as per manufacturer's instructions using the 680-channel. Region of interest (ROI) assigned on the basis of the precise placement of cells during implantation at 3 to 4 mm into the brain. ROI was corroborated with fluorescent signals from ex vivo imaging. Fluorescent multispectral images were obtained using the Maestro In-Vivo Imaging System (CRi, Inc.). […] Fluorescence images were acquired before treatment, immediately after and 1.5 hours after treatment. To compare signal intensities, ROIs were selected over the tumor or nontumor areas, and the change in fluorescence signal over baseline was determined. […] The total signal in the ROI defined in photons measured at the surface of the animal was divided by the area (in pixels). Spectral libraries were generated by assigning spectral peaks to background and fluorescence probe on tissue. […]

A short description of test [5]: In vivo FMT imaging of sham surgery animals. More on the design: species or system mice. On the procedure:
as §1, §2

Test [6] concerns the target human epidermal growth factor receptor (EGFR) (human) (UniProt P00533). Briefly: cell-based or functional assay.

In the case of Cy5.5-YHWYGYTPQNVI-amide [Compound 1], in the test with Gli36Δ5 cells, the “cellular uptake / accumulation of fluorescence (in words)” value (“cellular uptake / accumulation” below) was “Neither compound 1 (no linker) nor either of the molecules with greater linker numbers (compounds 3 and 4) was taken up by the cells to the same extent as compound 2”. Besides, in the test with EGFR, the “binding affinity to the cells (in words)” value is recorded as “micromolar range” and the Kd worked out at 18.5 µM.

“Cy5.5-(AEEA)1-YHWYGYTPQNVI-amide [Compound 2]”: the “cellular uptake / accumulation” value in the test on Gli36Δ5 cells was “greatest accumulation of fluorescence”. Further, the “fluorescence signal as injected dose” value worked out at 1.1% in test [1] (Gli36Δ5 brain tumors, 1 nmol/g, 1 hour, FMT) and 0.27% in test [2] (U87-MG brain tumors, 1 nmol/g, 1 hour, FMT). Moreover, the “amount of fluorescence in matching ROI (FMT 3-dimensional reconstruction)” value is 9,271 nmol/L in test [1] (Gli36Δ5 tumor), 1,608 nmol/L in test [2] (U87-MG tumor) and 272 nmol/L in test [5]. For the same molecule, the “binding affinity to the cells (in words)” value with EGFR is “micromolar range”. The Kd with EGFR amounted to 8.9 µM. Moreover, the “cell fluorescence in the presence of EGF ligand (in words)” value in test [3] is on record as “increasing fluorescence in the presence of the EGF ligand”. Also, the “accumulation in tumor, % of injected dose” value in test [4] is reported as 1.1 % of injected dose. For the same molecule, the “tumor targeting (in words)” value in test [4] is recorded as “targeted the tumor efficiently”; in test [4] (listed as compound 2) it was “targets the tumor significantly (***, P>0.0001) more efficiently than the scrambled peptide 6”.

With “Cy5.5-(AEEA)3-YHWYGYTPQNVI-amide [Compound 4]”, the “cellular uptake / accumulation” value in the test with Gli36Δ5 cells is “Neither compound 1 (no linker) nor either of the molecules with greater linker numbers (compounds 3 and 4) was taken up by the cells to the same extent as compound 2; also recorded: taken up by cells better than compound 3”. In addition, in the test with EGFR, the “binding affinity to the cells (in words)” value is listed as “micromolar range” and the Kd amounted to 123 µM.

As to “Cy5.5-(AEEA)2-YHWYGYTPQNVI-amide [Compound 3]”, the “cellular uptake / accumulation” value in the test with Gli36Δ5 cells is “Neither compound 1 (no linker) nor either of the molecules with greater linker numbers (compounds 3 and 4) was taken up by the cells to the same extent as compound 2”. In the test with EGFR, the “binding affinity to the cells (in words)” value is reported as “micromolar range” and the Kd is 64.4 µM.

With “Cy5.5-(AEEA)1-NYQTPVYGWIYH-amide ({Cy5.5-AEEA}-NYQTPVYGWIYH-NH2) [Compound 6, Cy5.5-labeled scrambled peptide, specificity control, reference compound]”, in test [4], the “accumulation in tumor, % of injected dose” value was 0.006 % of injected dose and the “tumor targeting (in words)” value is “did not target the tumor”.

Molecule NYQTPVYGWIYH (Cy5.5-(AEEA)1 at the N-terminus; C-terminal amide) [Compound 6: Cy5.5-(AEEA)1-…-amide scrambled] displayed a percent of injected dose delivered to Gli36Δ5 brain tumor (% of injected dose) in test [6] of 0.006.
